We go through two compounds from publication PMC6943619, “Synthesis and Pharmacological Evaluation of Hybrids Targeting Opioid and Neurokinin Receptors” (Molecules, 2019).

The target in one assay is T1, human KOR (Homo sapiens, UniProt P41145).
T1 construct: expressed in transfected cells; host or cells: CHO cells (University of Ferrara), co-expressing Gαqi5
Kind of assay: Calcium mobilization functional assay, agonist mode. The following applies: for KOR α ± SEM: efficacy (intrinsic activity), Emax relative to dynorphin A, mean ± SEM. Format: cell-based. For orientation: A change in cytosolic calcium serves as a functional read-out for many receptors and channels.

In the next assay the target is T2, DOR (Homo sapiens, UniProt P41143).
T2 construct: expressed in transfected cells; host or cells: CHO cells (University of Ferrara), co-expressing GαqG66Di5
T2 sequence (P41143 whole entry): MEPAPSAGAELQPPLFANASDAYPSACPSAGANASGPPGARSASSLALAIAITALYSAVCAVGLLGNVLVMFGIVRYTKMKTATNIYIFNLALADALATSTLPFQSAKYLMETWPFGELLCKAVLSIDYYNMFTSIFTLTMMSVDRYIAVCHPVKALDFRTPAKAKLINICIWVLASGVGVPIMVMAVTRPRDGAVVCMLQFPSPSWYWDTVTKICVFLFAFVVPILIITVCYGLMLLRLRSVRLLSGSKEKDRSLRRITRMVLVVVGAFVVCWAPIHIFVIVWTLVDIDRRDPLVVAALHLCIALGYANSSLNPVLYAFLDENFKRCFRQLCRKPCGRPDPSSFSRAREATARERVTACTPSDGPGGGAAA
The description is as above. The format is cell-based. The following applies: CHO cells co-expressing DOR and GαqG66Di5, n = 5; for DOR pEC50 (CL95%): Fluo-4 AM calcium signal; for DOR α ± SEM: efficacy (intrinsic activity), Emax relative to DPDPE, mean ± SEM.

The subject of a further assay is mice. In words: Writhing test (acetic acid, acute pain model). The following applies: 5 mg/kg i.p., single injection 15 min before i.p. acetic acid (0.5%, 10 mL/kg), writhes counted 15 min, saline baseline about 35, average, n = 10. Format: in vivo.
The target in assay [1] is T3, human opioid receptor DOR (Homo sapiens, UniProt P41143).
T3 construct: purchased PerkinElmer (Krakow, Poland); host or cells: CHO cell membranes
T3 sequence (P41143 whole entry): as above
Kind of assay: Radioligand binding assay, displacement of [3H]deltorphin-2. The following applies: displacement of [3H]deltorphin-2 from membranes of CHO cells transfected with human DOR, 50 mM Tris/HCl pH 7.4, 0.5% BSA, peptidase inhibitors, 2 h at 25 °C, mean ± SEM, n ≥ 3. As to the method: A radioligand binding assay was performed to determine the opioid receptor (OR) binding affinities of the novel analogs using commercially available membranes of Chinese hamster ovary cells (CHO) transfected with human recombinant ORs. […] Tyr-[D-Lys-Phe-Phe-Asp]NH2 (1) was used as a reference opioid compound.
(§1) To determine the affinity of peptide analogs to respective receptors, competition binding experiments were performed, as described in detail elsewhere.
(§2) Commercial membranes of CHO cells stably expressing either human ORs or NK1 receptor were used. […] Membranes were incubated in a 0.5 mL volume of 50 mM Tris/HCl (pH = 7.4), 0.5% bovine serum albumin (BSA), with a number of peptidase inhibitors (bacitracin, bestatin, captopril) and various concentrations of radioligands for 2 h at 25 °C.
(§3) The pharmacological terminology adopted in this paper is consistent with International Union of Basic and Clinical Pharmacology (IUPHAR) recommendations. Concentration–response curves were analyzed by nonlinear regression using Graph Pad Prism 6.0 (La Jolla, CA, USA). […] Concentration–response curves were fitted with the four-parameter logistic nonlinear regression model (1) Effect=baseline+Emax−baseline/1+10^logEC50−X·n where X is the agonist concentration and n is the Hill coefficient. Ligand efficacy was expressed as intrinsic activity (α) calculated as a ratio of the peptide Emax to the Emax of the standard agonist (Supplementary Materials, Figure S7). […] All statistical analyses were performed using Graph Pad Prism 6.0 (La Jolla, CA, USA). Differences between groups were analyzed with one-way ANOVA and a post hoc multiple comparison by the Student–Newman–Keuls test. A probability level of 0.05 or smaller was used to indicate statistical significance.
A general note: Displacement assays read how much labelled ligand stays bound in the presence of the test substance.

In a further assay the target is T4, human MOR (Homo sapiens, UniProt P35372).
T4 construct: expressed in transfected cells; host or cells: CHO cells (University of Ferrara), co-expressing Gαqi5
T4 sequence (P35372 whole entry): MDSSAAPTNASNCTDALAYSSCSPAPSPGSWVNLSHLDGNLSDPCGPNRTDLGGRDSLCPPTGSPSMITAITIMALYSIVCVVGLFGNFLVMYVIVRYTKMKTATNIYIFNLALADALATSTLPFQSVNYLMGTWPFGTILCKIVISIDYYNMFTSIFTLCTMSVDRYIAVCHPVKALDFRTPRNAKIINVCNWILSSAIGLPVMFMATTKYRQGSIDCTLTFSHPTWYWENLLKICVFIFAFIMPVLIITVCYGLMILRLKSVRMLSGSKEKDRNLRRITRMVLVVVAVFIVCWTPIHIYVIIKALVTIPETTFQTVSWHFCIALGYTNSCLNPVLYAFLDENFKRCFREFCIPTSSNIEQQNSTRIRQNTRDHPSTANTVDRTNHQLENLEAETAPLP
Kind of assay: Calcium mobilization functional assay, agonist mode. Format: cell-based. The following applies: for MOR α ± SEM: efficacy (intrinsic activity), Emax relative to EM-2, mean ± SEM.

The target of assay [2] is T5, human NK1 (Homo sapiens, UniProt P25103). In words: Radioligand binding assay, displacement of [3H][Sar9, Met(O2)11]SP. The arrangement: purchased PerkinElmer (Krakow, Poland); host or cells: CHO cell membranes. Particulars: displacement of [3H][Sar9, Met(O2)11]SP from membranes of CHO cells transfected with human NK1 receptor; 50 mM Tris/HCl pH 7.4, 0.5% BSA, peptidase inhibitors, 2 h at 25 °C; mean ± SEM, n ≥ 3; SEM. As to the method:
The binding assay was also used to examine the affinity of the synthesized hybrids for NK1 in commercial membranes of CHO cells stably expressing human NK1.
as §1, §2, §3

Assay [3] concerns the target T5, human NK1. In words: Calcium mobilization assay, inhibition response experiments against SP. Format: cell-based. Details: expressed in transfected cells; host or cells: CHO cells (gift of Prof. T. Costa, ISS, Rome). As to the method: Following aspiration of the loading solution and a washing step, serial dilutions of peptide stock solutions were added.
as §3

Setting [4] is: CHO cells co-expressing human KOR and Gαqi5, n = 5.
Setting [5] is: CHO cells co-expressing human MOR and Gαqi5, n = 5, SEM.

SMILES strings stand for the structures. Where two headings read alike, the source gives them in different places. Where a SMILES comes first, the peptide text is derived from it. Bridges are numbered along the chain shown (N, C = ends). [ ]: non-standard residue; d: D form. Nle = CCCC[C@H](N)C(=O)O

T1 sequence (P41145 whole entry): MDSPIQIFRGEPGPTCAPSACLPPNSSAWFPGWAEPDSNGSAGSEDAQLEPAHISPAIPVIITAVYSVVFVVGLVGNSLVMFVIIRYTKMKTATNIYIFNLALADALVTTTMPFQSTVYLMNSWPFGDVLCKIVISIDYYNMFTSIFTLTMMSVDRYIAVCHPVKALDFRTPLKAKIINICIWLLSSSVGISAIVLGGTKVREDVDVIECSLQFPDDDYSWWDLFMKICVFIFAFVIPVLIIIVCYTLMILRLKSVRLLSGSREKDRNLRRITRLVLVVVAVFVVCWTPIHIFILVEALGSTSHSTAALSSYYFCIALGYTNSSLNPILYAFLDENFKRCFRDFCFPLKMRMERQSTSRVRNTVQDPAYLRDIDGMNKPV
T5 sequence (P25103 whole entry): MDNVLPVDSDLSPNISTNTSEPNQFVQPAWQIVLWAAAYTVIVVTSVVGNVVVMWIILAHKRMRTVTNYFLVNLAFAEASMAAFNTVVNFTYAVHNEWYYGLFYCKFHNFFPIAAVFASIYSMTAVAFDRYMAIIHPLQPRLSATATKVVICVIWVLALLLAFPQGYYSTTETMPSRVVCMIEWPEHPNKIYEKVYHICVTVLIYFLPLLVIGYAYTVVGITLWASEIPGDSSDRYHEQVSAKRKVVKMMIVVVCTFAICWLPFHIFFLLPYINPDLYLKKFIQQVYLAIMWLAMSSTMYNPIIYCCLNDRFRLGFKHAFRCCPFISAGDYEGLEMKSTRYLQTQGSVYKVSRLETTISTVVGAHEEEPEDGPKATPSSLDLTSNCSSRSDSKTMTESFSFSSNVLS
Procedure for mice: The writhing test was used as an acute pain model. This test involves intraperitoneal (i.p.) injection of acetic acid which results in abdominal constriction, causing the mice to writhe. Peptides or saline (control) were administered i.p. over a concentration range of 0.3 to 5 mg/kg at 15 min before the injection of acetic acid (0.5%, 10 mL/kg). The baseline number of writhes in the saline-treated animals was about 35.
Peptides or vehicle were administered 15 min before the i.p. injection of acetic acid (0.5%, 10 mL/kg). The number of writhes was determined 5 min after acetic acid injection over a period of 15 min. The data represent mean ± SEM, n = 10.
Male Balb/c mice (Animal Facility of Nofer Institute of Occupational Medicine, Lodz, Poland) weighing 22–25 g were used in the study. The animals were housed under standard conditions (22 ± 1 °C, 12 h light/dark cycle) with food and water ad libitum for five days before the experiments.
Antinociceptive activity was assessed by the writhing test. Mice were divided into groups of 10 animals each. A single i.p. injection of saline or a tested compound (at doses 0.3, 1, 3, or 5 mg/kg) was followed (after 15 min) by the i.p. administration of acetic acid (0.65% in 0.9% NaCl, 10 mL/kg) [53]. After 5 min recovery, specific spontaneous behaviors characterized by elongation of the body (“writhes”) were counted for 15 min.

As a reminder, the Ki is the dissociation constant of the complex between target and ligand, obtained from inhibition or displacement. High values mean lower affinity, low ones higher affinity. On to `CSCC[C@H](NC(=O)[C@H](CC(C)C)NC(=O)CNC(=O)[C@H](Cc1ccccc1)NC(=O)[C@H](Cc1ccccc1)NC(=O)[C@H](CCC(N)=O)NC(=O)[C@@H]1CC(=O)NCCCC[C@@H](NC(=O)[C@@H](N)Cc2ccc(O)cc2)C(=O)N[C@@H](Cc2ccccc2)C(=O)N[C@@H](Cc2ccccc2)C(=O)N1)C(N)=O` [compound 4, Tyr-[D-Lys-Phe-Phe-Asp]-Gln-Phe-Phe-Gly-Leu-Met-NH2] (H-Y[dK]FFDQFFGLM-NH2; lactam 2-5), for which the EC50 on human KOR was 14.1 nM. In addition, the “KOR α ± SEM” value at human KOR (setting [4]) came to 0.92 ± 0.05. On DOR, the “DOR pEC50 (CL95%)” value was “Crc incomplete” and the “DOR α ± SEM” value is recorded as “Crc incomplete”. In the assay with mice, this compound showed a number of writhes of 4.5. The affinity in assay [1] corresponds to a Ki of 225 ± 14 nM. Also, the “MOR α ± SEM” value on human MOR (setting [5]) was determined as 0.90 ± 0.04. On human NK1 [2], this compound returned a Ki of 15.6 ± 1.23 nM.

In the case of `CCCC[C@H](NC(=O)[C@H](CC(C)C)NC(=O)[C@@H](Cc1c[nH]c2ccccc12)NC(=O)[C@H](Cc1ccccc1)NC(=O)[C@@H](Cc1c[nH]c2ccccc12)NC(=O)[C@H](CC(N)=O)NC(=O)[C@@H]1CC(=O)NCCCC[C@@H](NC(=O)[C@@H](N)Cc2ccc(O)cc2)C(=O)N[C@@H](Cc2ccccc2)C(=O)N[C@@H](Cc2ccccc2)C(=O)N1)C(N)=O` [compound 2, Tyr-[D-Lys-Phe-Phe-Asp]-Asn-D-Trp-Phe-D-Trp-Leu-Nle-NH2] (H-Y[dK]FFDN[dW]F[dW]L[Nle]-NH2; lactam 2-5), the EC50 at human KOR (CHO cells co-expressing human KOR and Gαqi5, Fluo-4 AM calcium signal, n = 5, read-out: KOR pEC50 (CL95%) (converted)) was 9.77 nM; at human MOR (CHO cells co-expressing human MOR and Gαqi5, Fluo-4 AM calcium signal, n = 5, read-out: MOR pEC50 (CL95%) (converted)), 31.6 nM. Further, the “KOR α ± SEM” value on human KOR (setting [4]) turned out to be 0.99 ± 0.05. At human NK1 [3], the Kb was 46.8 nM. Also, at DOR, the “DOR pEC50 (CL95%)” value is “Crc incomplete”. The “DOR α ± SEM” value on DOR is on record as “Crc incomplete”. Further, in the assay on mice, the number of writhes is 12.4. Also, the inhibition constant (Ki) in assay [1] is 202 ± 2.5 nM; on human NK1 [2], 10.5 ± 0.6 nM. For the same compound, the “lower potency at MOR as compared with 1” value at human MOR (calcium mobilization, from pEC50 values) is given as 30 fold. In addition, the “MOR α ± SEM” value at human MOR (CHO cells co-expressing human MOR and Gαqi5, n = 5) is reported as 0.66; on human MOR (setting [5]) it was 0.66 ± 0.04.
